The source of these data is paper PMC7859889 (ACS chemical biology, 2020).

Read-outs that look alike come from different tables or passages of the source.

Series [1] concerns HLA-B HiBit (MHC class I). Description: HLA-B HiBit luminescent reporter assay. The following applies: for HiBit Efficacy: 4.0 ng/ml IFN-β, IFN-β = 0%, DMSO alone = −100% activity. For orientation: HiBiT is a short tag that completes a luciferase, so light tracks the accessible tagged protein.
The test system of a further series is HLA-A. In words: Multi Gene RT-qPCR, HLA-A. The following applies: 4.0 ng/ml IFN-β plus 50 uM compound, 24 hrs. The class given is cell-based, human.
The next series has as its system HLA-B mRNA. In words: HLA-B RT-qPCR tertiary assay. The class given is cell-based, human. The following applies: for Emax: read-out: RT-qPCR Efficacy; for IC50: read-out: RT-qPCR IC50. For orientation: Real-time PCR tracks product formation cycle by cycle.
The next series has as its system HLA-B HiBit cells. In words: CellTiter-Glo. The following applies: for CTG Curve class: cytotoxicity, 4.0 ng/ml IFN-β, 24 hours. A general note: ATP-based viability assays read luminescence as a measure of living cells.
A further series has as its system C25cl48 cells. In words: IF cell count cytotoxicity. The class given is cell-based, human. Particulars: C25cl48 cells; for Cell count Curve class: IF cell count cytotoxicity.
Series [2] relates to type I IFN – MHC class I pathway. Description: Average / all assays. The following applies: for IC50: read-out: Average IC50; for hill slope: concentration-response curves. The class given is cell-based, human.
For a further series, the system named is HLA and ISG genes. Description: Multi Gene RT-qPCR, gene panel. The class given is cell-based, human. Particulars: 4.0 ng/ml IFN-β plus 50 uM compound, 24 hrs; for effect on HLA and ISG gene expression (in words): C25cl48 cells.
Another series relates to HLA-ABC. Description: HLA-ABC immunofluorescence. The class given is cell-based, human. Particulars: for Emax / IC50: Homo sapiens; for Emax: read-out: Immunofluorescence Efficacy.
Another series deals with ISG15. Description: Multi Gene RT-qPCR, ISG15. The class given is cell-based, human. Particulars: compared to IFN-β treated cells; 4.0 ng/ml IFN-β plus 50 uM compound, 24 hrs.
For the next series, the system named is MX1. In words: Multi Gene RT-qPCR, MX1. The following applies: compared to IFN-β treated cells; 4.0 ng/ml IFN-β plus 50 uM compound, 24 hrs. The class given is cell-based, human.
Another series concerns STAT1. In words: Western blot, STAT1 phosphorylation. Particulars: C25cl48 cells, 0.5 hrs, 4.0 ng/ml IFN-β plus IC95 concentration of compound. The class given is cell-based, human.
Series [3] relates to IL-6 stimulation of whole blood. The following applies: IL-6 stimulation of whole blood ref 20; cited from earlier work.
Where [4] appears, read: read-out: Immunofluorescence IC50.
[5] abbreviates: HLA-B HiBit clone AB-7 cells, 24 hours.
The mark [6] stands for this setting: HLA-B mRNA, C25cl48 cells, 4.0 ng/mL IFN-β.
Setting [7] is: average of HiBit, Immunofluorescence, RT-qPCR.
Where [8] appears, read: HLA-ABC+ C25cl48 cells, IFN-β-stimulated, prednisolone acetate used for IF.

As to `Cc1[nH]c2ccccc2c1CCNCc1ccc(/C=C/C(=O)NO)cc1` [Panobinostat, panobinostat], the Emax in series [1] (Homo sapiens, 24 h, read-out: HiBit Efficacy) came out at 86%; in the series on HLA-B mRNA (Homo sapiens), 68%; with HLA-ABC it was 111%. Besides, the “effect on HLA-A mRNA” value in the series on HLA-A was “no effect”. The IC50 in the series on HLA-B mRNA (Homo sapiens) was 29 nM; in series [2] (Homo sapiens), 40 nM; in the series on HLA-ABC (setting [4]) it was 28 nM. Besides, in the series on HLA-B HiBit cells (( ) - efficacy at highest concentration), the “CTG Efficacy at highest concentration” value was “(25) %”. For the same molecule, the “CTG Curve class” value in the series on HLA-B HiBit cells was −3. In addition, in the series with C25cl48 cells, the “Cell count Curve class” value amounted to 4. Also, the “potency relative to givinostat at inhibiting IFN-β-MHC class I pathway” value in [2] is given as 45 x. Further, the “efficacy in reducing all HLA and ISG genes” value in the series on HLA and ISG genes is reported as 70–80%. In addition, in the series with HLA and ISG genes (compared to IFN-β treated cells), the “decrease of all genes tested except HLA-A” value is listed as ~ 80%.

Regarding `C[C@]12C=CC(=O)C=C1CC[C@@H]1[C@@H]2[C@@H](O)C[C@@]2(C)[C@H]1CC[C@]2(O)C(=O)CO` [Prednisolone], the results for the Emax in the series on HLA-B mRNA (Homo sapiens) and in the series with HLA-ABC were 14% and 31%, respectively. Further, the IC50 with HLA-B mRNA (Homo sapiens) amounted to 30 nM; in series [2] (Homo sapiens), 43 nM. Also, the “CTG Curve class” value in the series with HLA-B HiBit cells was 4. For the same molecule, in the series on C25cl48 cells, the “Cell count Curve class” value was determined as 4. Further, the “increase of ISG15 mRNA” value in the series with ISG15 is reported as ~ 3.4 fold. For the same molecule, the “effect on HLA and ISG gene expression (in words)” value in the series with HLA and ISG genes is “increased ISG15 and MX1”. The “increase of MX1 mRNA” value in the series on MX1 is reported as ~ 3.4 fold.

As for `N#CC[C@H](C1CCCC1)n1cc(-c2ncnc3[nH]ccc23)cn1` [Ruxolitinib, ruxolitinib], in the series on STAT1, the “phosphorylation of STAT1” value is “prevented phosphorylation of STAT1”. In addition, the “HiBit Efficacy” value in [1] (setting [5]) is listed as 100%. Further, the IC50 was 1100 nM in series [1] (Homo sapiens, 24 h, read-out: HiBit IC50); 340 ± 36 nM in series [1] (Homo sapiens, 24 h, read-out: IC50, HiBit control titration); 1600 nM in the series with HLA-B mRNA (Homo sapiens); 1200 nM in [2] (Homo sapiens); 282 ± 54 nM in series [3]; 3500 nM in the series on HLA-ABC (48 h, read-out: IC50, HLA-ABC+ cells control titration). Moreover, in the series on HLA-ABC (setting [4]), the IC50 came to 880 nM. Besides, the values for the Emax in the series with HLA-B mRNA (Homo sapiens) and with HLA-ABC were 115% and 100%, respectively. Moreover, in the series on HLA-B HiBit cells (HLA-B HiBit cells, 24 hrs), the “CTG viability response in control titrations” value is “slight bell-shaped curve”. The “CTG Curve class” value in the series with HLA-B HiBit cells is listed as 4. The “cell count response in control titrations” value in the series with C25cl48 cells (48 hrs) was “bell shaped viability curve”. Further, in the series on C25cl48 cells, the “Cell count Curve class” value turned out to be 4.

In the case of `C[C@@H]1CCN(C(=O)CC#N)C[C@@H]1N(C)c1ncnc2[nH]ccc12` [Tofacitinib, tofacitinib], the “phosphorylation of STAT1” value in the series on STAT1 is “prevented phosphorylation of STAT1”. The “HiBit Efficacy” value in [1] (setting [5]) is 100%. Further, the Emax came out at 83% in the series with HLA-B mRNA (Homo sapiens) and 100% in the series on HLA-ABC. Besides, in the series with HLA-B HiBit cells, the “CTG Curve class” value was determined as 4. Besides, the “Cell count Curve class” value in the series on C25cl48 cells stood at 4.

For `CC(C)[C@]12O[C@H]1[C@@H]1O[C@@]13[C@@]1(C)CCC4=C(COC4=O)[C@@H]1C[C@@H]1O[C@@]13C2=O` [Triptonide, triptonide], in series [1] (HLA-B HiBit clone AB-7 cells, 4.0 ng/ml IFN-β plus compound titration, 24 hours), the “HiBit Curve class” value is −1a. Besides, the “HiBit Efficacy” value in series [1] (setting [5]) was 100%. Moreover, the IC50 in series [1] (read-out: HiBit IC50, HLA-B HiBit clone AB-7 cells, 4.0 ng/ml IFN-β plus compound titration, 24 hours) amounted to 47 nM. Besides, in the series on HLA-B mRNA (setting [6]), the “RT-qPCR Curve class” value is given as −1a, the “RT-qPCR Efficacy” value is reported as 113% and the IC50 stood at 500 nM. In the series on HLA-B HiBit cells, the “CTG Curve class” value stood at 4. Moreover, the “Cell count Curve class” value with C25cl48 cells came out at 4. In [2] (setting [7]), the “Average Curve class” value is −1a, the “Average Efficacy” value was 104% and the IC50 was found to be 246 nM. In addition, the hill slope result in [2] is “ultrasensitive”. In addition, in the series with HLA and ISG genes, the “efficacy in reducing all HLA and ISG genes” value was more than 99%; the “effect on HLA and ISG gene expression (in words)” value is “normalized all genes”. In addition, in the series with HLA-ABC (setting [8]), the “Immunofluorescence Curve class” value is listed as −1a and the “Immunofluorescence Efficacy” value turned out to be 100%.

Turning to `CC(C)[C@]12O[C@H]1[C@@H]1O[C@]13[C@]1(O[C@H]1C[C@H]1C4=C(CC[C@@]13C)C(=O)OC4)[C@@H]2O` [triptolide], the hill slope result in [2] is given as “ultrasensitive”.
